According to ChEMBL document CHEMBL2417379, “Anti-inflammatory and anti-apoptotic effects of (RS)-glucoraphanin bioactivated with myrosinase in murine sub-acute and acute MPTP-induced Parkinson's disease” (Bioorg Med Chem, 2013):
The source made the active and inactive calls. The calls are words filed in the database; no cut-off is given here.

Tests used:
Mus musculus [1] = assay: Antiapoptotic activity against DA neurons in C57BL/6 mouse sub-acute MPTP-induced parkinson's disease model assessed as increase in Bcl2 expression at 10 mg/kg, ip administered for 1 week prior to MPTP challenge measured after 8 days by immunohistochemistry relative to untreated control; type: functional, organism-based; design: dose 10 mg/kg
Mus musculus [2] = assay: Antiparkinsonian activity in C57BL/6 mouse sub-acute MPTP-induced parkinson's disease model assessed as reduction in MPTP-induced change in body weight at 10 mg/kg, ip administered for 1 week prior to MPTP challenge relative to control; type: functional, organism-based; design: dose 10 mg/kg
Mus musculus [3] = assay: Antiparkinsonian activity in C57BL/6 mouse acute MPTP-induced parkinson's disease model assessed as reduction in MPTP-induced change in body weight at 10 mg/kg, ip administered for 1 week prior to MPTP challenge relative to control; type: functional, organism-based; design: dose 10 mg/kg
Mus musculus [4] = assay: Neuroprotective activity in C57BL/6 mouse sub-acute MPTP-induced parkinson's disease model assessed as bewilderment at 10 mg/kg, ip administered for 1 week prior to MPTP challenge by pole test relative to untreated control; type: functional, organism-based; design: dose 10 mg/kg
Mus musculus [5] = assay: Neuroprotective activity in C57BL/6 mouse acute MPTP-induced parkinson's disease model assessed as prevention of loss of DA transporter expression in substantia nigra at 10 mg/kg, ip administered for 1 week prior to MPTP challenge by immunohistochemistry; type: functional, organism-based; design: dose 10 mg/kg
Mus musculus [6] = assay: Antiapoptotic activity against DA neurons in C57BL/6 mouse sub-acute MPTP-induced parkinson's disease model assessed as reduction in Bax expression at 10 mg/kg, ip administered for 1 week prior to MPTP challenge measured after 8 days by immunohistochemistry relative to untreated control; type: functional, organism-based; design: dose 10 mg/kg
Mus musculus [7] = species: Mus musculus; assay: Antiinflammatory activity against C57BL/6 mouse sub-acute MPTP-induced parkinson's disease model assessed as reduction in nitrotyrosine localization in substantia nigra pars compacta prior to MPTP challenge by immunohistochemistry relative to untreated control; type: functional, organism-based
Mus musculus [8] = assay: Neuroprotective activity in C57BL/6 mouse acute MPTP-induced parkinson's disease model assessed as increase in NGF expression in brain at 10 mg/kg, ip administered for 1 week prior to MPTP challenge by immunohistochemistry; type: functional, organism-based; design: dose 10 mg/kg
Mus musculus [9] = assay: Neurotoxicity in C57BL/6 mouse assessed as nitrotyrosine localization in substantia nigra pars compacta at 10 mg/kg, ip by immunohistochemistry; type: toxicity, organism-based; design: dose 10 mg/kg, route intraperitoneal; conditions: in vivo
Mus musculus [10] = assay: Antiinflammatory activity against C57BL/6 mouse acute MPTP-induced parkinson's disease model assessed as reduction in IL-1beta localization in brain at 10 mg/kg, ip administered for 1 week prior to MPTP challenge measured after 8 days by immunohistochemistry relative to untreated control; type: functional, organism-based; design: dose 10 mg/kg
Mus musculus [11] = assay: Neuroprotective activity in C57BL/6 mouse sub-acute MPTP-induced parkinson's disease model assessed as increase in NGF expression in brain at 10 mg/kg, ip administered for 1 week prior to MPTP challenge by immunohistochemistry; type: functional, organism-based; design: dose 10 mg/kg
Mus musculus [12] = assay: Neuroprotective activity in C57BL/6 mouse acute MPTP-induced parkinson's disease model assessed as increase in TH protein expression in striatum at 10 mg/kg, ip administered for 1 week prior to MPTP challenge measured after 8 days by immunohistochemistry relative to untreated control; type: functional, organism-based; design: dose 10 mg/kg
Mus musculus [13] = assay: Antiinflammatory activity against C57BL/6 mouse sub-acute MPTP-induced parkinson's disease model assessed as reduction in cytosolic GFAP localization in brain at 10 mg/kg, ip administered for 1 week prior to MPTP challenge by immunohistochemistry relative to untreated control; type: functional, organism-based; design: dose 10 mg/kg
Mus musculus [14] = assay: Neurotoxicity in C57BL/6 mouse assessed as cytosolic GFAP localization in brain at 10 mg/kg, ip by immunohistochemistry; type: toxicity, organism-based; design: dose 10 mg/kg, route intraperitoneal; conditions: in vivo
Mus musculus [15] = assay: Neuroprotective activity in C57BL/6 mouse acute MPTP-induced parkinson's disease model assessed as preservation of neurological behavioural changes at 10 mg/kg, ip administered for 1 week prior to MPTP challenge measured for 3 mins by open field test relative to vehicle-treated control; type: functional, organism-based; design: dose 10 mg/kg
Mus musculus [16] = assay: Antiinflammatory activity against C57BL/6 mouse sub-acute MPTP-induced parkinson's disease model assessed as reduction in IL-1beta localization in brain at 10 mg/kg, ip administered for 1 week prior to MPTP challenge measured after 8 days by immunohistochemistry relative to untreated control; type: functional, organism-based; design: dose 10 mg/kg
Mus musculus [17] = assay: Antiinflammatory activity against C57BL/6 mouse acute MPTP-induced parkinson's disease model assessed as increase in Nrf2 localization in brain at 10 mg/kg, ip administered for 1 week prior to MPTP challenge by immunohistochemistry relative to untreated control; type: functional, organism-based; design: dose 10 mg/kg
Mus musculus [18] = assay: Neuroprotective activity in C57BL/6 mouse sub-acute MPTP-induced parkinson's disease model assessed as prevention of loss of DA transporter expression in substantia nigra at 10 mg/kg, ip administered for 1 week prior to MPTP challenge by immunohistochemistry; type: functional, organism-based; design: dose 10 mg/kg
Mus musculus [19] = assay: Antiinflammatory activity against C57BL/6 mouse sub-acute MPTP-induced parkinson's disease model assessed as increase in Nrf2 localization in brain at 10 mg/kg, ip administered for 1 week prior to MPTP challenge by immunohistochemistry relative to untreated control; type: functional, organism-based; design: dose 10 mg/kg
Mus musculus [20] = assay: Neuroprotective activity in C57BL/6 mouse acute MPTP-induced parkinson's disease model assessed as increase in BDNF expression in brain at 10 mg/kg, ip administered for 1 week prior to MPTP challenge by immunohistochemistry; type: functional, organism-based; design: dose 10 mg/kg
Mus musculus [21] = assay: Neurotoxicity in C57BL/6 mouse assessed as TH protein expression in striatum at 10 mg/kg, ip measured after 8 days by immunohistochemistry; type: toxicity, organism-based; design: dose 10 mg/kg, route intraperitoneal; conditions: in vivo, 192 h
Mus musculus [22] = assay: Neurotoxicity in C57BL/6 mouse assessed as reduction of DA transporter expression in substantia nigra at 10 mg/kg, ip by immunohistochemistry; type: toxicity, organism-based; design: dose 10 mg/kg, route intraperitoneal; conditions: in vivo
Mus musculus [23] = assay: Toxicity in C57BL/6 mouse assessed as Bcl2 expression in brain at 10 mg/kg, ip measured after 8 days by immunohistochemistry; type: organism-based; design: dose 10 mg/kg, route intraperitoneal; conditions: in vivo, 192 h
Mus musculus [24] = assay: Antiapoptotic activity against DA neurons in C57BL/6 mouse acute MPTP-induced parkinson's disease model assessed as protection against neuronal functional disruption at 10 mg/kg, ip administered for 1 week prior to MPTP challenge by golgi staining-based microscopic analysis relative to untreated control; type: organism-based; design: dose 10 mg/kg
Mus musculus [25] = assay: Neurotoxicity in C57BL/6 mouse assessed as IL-1beta localization in brain at 10 mg/kg, ip measured after 8 days by immunohistochemistry; type: toxicity, organism-based; design: dose 10 mg/kg, route intraperitoneal; conditions: in vivo, 192 h
Mus musculus [26] = assay: Neuroprotective activity in C57BL/6 mouse sub-acute MPTP-induced parkinson's disease model assessed as increase in GAP-43 expression in brain at 10 mg/kg, ip administered for 1 week prior to MPTP challenge by immunohistochemistry; type: functional, organism-based; design: dose 10 mg/kg
Mus musculus [27] = assay: Antiinflammatory activity against C57BL/6 mouse acute MPTP-induced parkinson's disease model assessed as reduction in nitrotyrosine localization in substantia nigra pars compacta at 10 mg/kg, ip administered for 1 week prior to MPTP challenge by immunohistochemistry relative to untreated control; type: functional, organism-based; design: dose 10 mg/kg
Mus musculus [28] = assay: Antiapoptotic activity against C57BL/6 mouse sub-acute MPTP-induced parkinson's disease model assessed as protection against neuronal functional disruption at 10 mg/kg, ip administered for 1 week prior to MPTP challenge by golgi staining-based microscopic analysis relative to untreated control; type: organism-based; design: dose 10 mg/kg
Mus musculus [29] = assay: Toxicity in C57BL/6 mouse assessed as Bax expression in brain at 10 mg/kg, ip measured after 8 days by immunohistochemistry; type: organism-based; design: dose 10 mg/kg, route intraperitoneal; conditions: in vivo, 192 h
Mus musculus [30] = assay: Neurotoxicity in C57BL/6 mouse assessed as Nrf2 localization in brain at 10 mg/kg, ip by immunohistochemistry; type: toxicity, organism-based; design: dose 10 mg/kg, route intraperitoneal; conditions: in vivo
Mus musculus [31] = assay: Neuroprotective activity in C57BL/6 mouse sub-acute MPTP-induced parkinson's disease model assessed as increase in BDNF expression in brain at 10 mg/kg, ip administered for 1 week prior to MPTP challenge by immunohistochemistry; type: functional, organism-based; design: dose 10 mg/kg
Mus musculus [32] = assay: Antiapoptotic activity against DA neurons in C57BL/6 mouse acute MPTP-induced parkinson's disease model assessed as increase in Bcl2 expression at 10 mg/kg, ip administered for 1 week prior to MPTP challenge measured after 8 days by immunohistochemistry relative to untreated control; type: functional, organism-based; design: dose 10 mg/kg
Mus musculus [33] = assay: Neurotoxicity in C57BL/6 mouse assessed as basal NGF expression in brain at 10 mg/kg, ip by immunohistochemistry; type: toxicity, organism-based; design: dose 10 mg/kg, route intraperitoneal; conditions: in vivo
Mus musculus [34] = assay: Neurotoxicity in C57BL/6 mouse assessed as basal GAP-43 expression in brain at 10 mg/kg, ip by immunohistochemistry; type: toxicity, organism-based; design: dose 10 mg/kg, route intraperitoneal; conditions: in vivo
Mus musculus [35] = assay: Toxicity in C57BL/6 mouse assessed as change in body weight at 10 mg/kg, ip; type: organism-based; design: dose 10 mg/kg, route intraperitoneal; conditions: in vivo
Mus musculus [36] = assay: Neuroprotective activity in C57BL/6 mouse sub-acute MPTP-induced parkinson's disease model assessed as latency time at 10 mg/kg, ip administered for 1 week prior to MPTP challenge by open field test relative to vehicle-treated control; type: functional; conditions: route intraperitoneal
Mus musculus [37] = assay: Toxicity in C57BL/6 mouse assessed as faster drop time at 10 mg/kg, ip by pole test; type: organism-based; design: dose 10 mg/kg, route intraperitoneal; conditions: in vivo
Mus musculus [38] = assay: Antiinflammatory activity against C57BL/6 mouse acute MPTP-induced parkinson's disease model assessed as reduction in cytosolic GFAP localization in brain at 10 mg/kg, ip administered for 1 week prior to MPTP challenge by immunohistochemistry relative to untreated control; type: functional, organism-based; design: dose 10 mg/kg
Mus musculus [39] = assay: Neuroprotective activity in C57BL/6 mouse acute MPTP-induced Parkinson's disease model assessed as increase in GAP-43 expression in brain at 10 mg/kg, ip administered for 1 week prior to MPTP challenge by immunohistochemistry; type: functional, organism-based; design: dose 10 mg/kg
Mus musculus [40] = assay: Antiapoptotic activity against DA neurons in C57BL/6 mouse acute MPTP-induced parkinson's disease model assessed as reduction in Bax expression at 10 mg/kg, ip administered for 1 week prior to MPTP challenge measured after 8 days by immunohistochemistry relative to untreated control; type: functional, organism-based; design: dose 10 mg/kg
Mus musculus [41] = assay: Neuroprotective activity in C57BL/6 mouse sub-acute MPTP-induced parkinson's disease model assessed as increase in TH protein expression in striatum at 10 mg/kg, ip administered for 1 week prior to MPTP challenge measured after 8 days by immunohistochemistry relative to untreated control; type: functional, organism-based; design: dose 10 mg/kg

C[S@@+]([O-])CCCC/C(=N/OS(=O)(=O)O)S[C@@H]1O[C@H](CO)[C@@H](O)[C@H](O)[C@H]1O (racemic)
Activity (Mus musculus [1]): Active | Activity (Mus musculus [2]): Active | Activity (Mus musculus [3]): Active | Activity (Mus musculus [4]): Active | Activity (Mus musculus [5]): Active | Activity (Mus musculus [6]): Active | Activity (Mus musculus [7]): Active | Activity (Mus musculus [8]): Active | Activity (Mus musculus [9]): Non-toxic | Activity (Mus musculus [10]): Active | Activity (Mus musculus [11]): Active | Activity (Mus musculus [12]): Active | Activity (Mus musculus [13]): Active | Activity (Mus musculus [14]): Non-toxic | Activity (Mus musculus [15]): Active | Activity (Mus musculus [16]): Active | Activity (Mus musculus [17]): Active | Activity (Mus musculus [18]): Active | Activity (Mus musculus [19]): Active | Activity (Mus musculus [20]): Active | Activity (Mus musculus [21]): Non-toxic | Activity (Mus musculus [22]): Non-toxic | Activity (Mus musculus [23]): Non-toxic | Activity (Mus musculus [24]): Active | Activity (Mus musculus [25]): Non-toxic | Activity (Mus musculus [26]): Active | Activity (Mus musculus [27]): Active | Activity (Mus musculus [28]): Active | Activity (Mus musculus [29]): Non-toxic | Activity (Mus musculus [30]): Non-toxic | Activity (Mus musculus [31]): Active | Activity (Mus musculus [32]): Active | Activity (Mus musculus [33]): Non-toxic | Activity (Mus musculus [34]): Non-toxic | Activity (Mus musculus [35]): Non-toxic | Time (Mus musculus [36]): 0 min | Activity (Mus musculus [37]): Non-toxic | Activity (Mus musculus [38]): Active | Activity (Mus musculus [39]): Active | Activity (Mus musculus [40]): Active | Activity (Mus musculus [41]): Active
